Test results reported in patent US7101878B1 (Agouron Pharmaceuticals, Inc., priority 1998, dated 2006).
Where two headings read alike, the source gives them in different places.

Molecular target: T1, human GnRH receptor (Homo sapiens, UniProt P30968)
T1 construct: expressed in transfected cells; host or cells: HEK 293 (hGnRH-R/293, from Dr. Stuart Sealfon)
T1 sequence (P30968 1-328): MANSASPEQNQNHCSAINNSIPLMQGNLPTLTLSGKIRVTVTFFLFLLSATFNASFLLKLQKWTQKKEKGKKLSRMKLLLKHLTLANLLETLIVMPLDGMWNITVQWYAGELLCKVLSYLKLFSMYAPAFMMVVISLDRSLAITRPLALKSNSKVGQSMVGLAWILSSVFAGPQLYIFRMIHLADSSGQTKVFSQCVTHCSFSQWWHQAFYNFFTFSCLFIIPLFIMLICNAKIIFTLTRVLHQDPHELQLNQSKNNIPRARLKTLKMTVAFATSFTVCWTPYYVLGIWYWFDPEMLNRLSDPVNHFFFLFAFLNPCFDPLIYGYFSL
Assay: Radioligand binding, 125I-GnRH-A displacement, membranes of HEK 293 cells with human GnRH receptor
Settings: for remaining activity at 10 µM / remaining activity at 1 µM: substrate remaining, closer to zero = closer to 100% inhibition; for remaining activity at 10 µM: 10 uM compound, read-out: S%R 10 uM hGnRHR; for IC50: read-out: hGnRH IC50; for remaining activity at 1 µM: 1 uM compound, read-out: S%R 1 uM hGnRHR
Method: All compounds were diluted in 1% DMSO (final assay concentration) in binding assay buffer. […] Reactions were terminated by rapid filtration onto 96-well Packard GF/C filters soaked in 0.1% polyethyleneimine. Filters were washed three times with PBS buffer, dried and counted on a Packard Topcount by liquid scintillation counting.
Assay conditions were identical for assessing compound activities at other species. […] IC50 values for control peptides and test compounds were calculated utilizing GraphPad Prism™ software.
Crude compounds were tested using the competitive radioligand binding assay described above.
The reaction mixture was vortexed and incubated for 1 min at room temperature. After one min, the mixture was vortexed and allowed to incubate for an additional minute. 2 ml of 0.5 M acetic acid/1% BSA was added to the reaction tube and the mixture was added to a C18 Sep-Pak cartridge. The cartridge was washed with subsequent washes of 5 ml H2O and 5 ml 0.5M acetic acid and then eluted with 5×1 ml of 60% CH3CN/40% 0.5M acetic acid. The eluate was diluted with 3× volume of HPLC buffer A (0.1% TFA in H2O) and loaded onto a C18 column. The iodinated product was eluted over 20-25 min with a gradient of 25-100% CH3CN containing 0.1% TFA. The radioactive fractions (750 ed/fraction) are collected into clean polypropylene tubes containing 100 μl of 10% BSA. Fractions were assessed for biological activity by radioligand binding.
S%R is the substrate remaining.

[1] = 1 uM, read-out: % Inhib. @ 1 uM hGnRH
[2] = 1 h, repeat of % Inhib. at 1 uM, read-out: Repeats @ 1 uM hGnRH

inhibition at 1 µM [1] [%]	inhibition at 1 µM [2] [%]	SMILES	also measured
78	84	Cc1cc2c(cc1Cc1ccc(C(=O)NCc3cccc(Cl)c3)o1)C(C)(C)CCC2(C)C [drawing 1136]	–
-29	-31	Cc1cc2c(cc1Cc1ccc(C(=O)NC3=NN(c4c(Cl)cc(Cl)cc4Cl)C(=O)C3)o1)C(C)(C)CCC2(C)C	–
-25	3	Cc1cc2c(cc1Cc1ccc(C(=O)N3CCN(c4cccc(C(F)(F)F)c4)CC3)o1)C(C)(C)CCC2(C)C	–
–	–	COc1ccc(NC(=O)c2ccc(Cc3cc4c(cc3C)C(C)(C)CCC4(C)C)o2)cc1F [Compound 381]	remaining activity at 10 µM (1 h): 34%
44	45	Cc1cc2c(cc1Cc1ccc(C(=O)NCc3ccc(C(=O)O)cc3)o1)C(C)(C)CCC2(C)C [drawing 1016]	–
–	–	COc1cc(OC)c(NC(=O)c2ccc(Cc3cc(OC)cc(OC)c3OC)o2)c(OC)c1 [Compound 208]	IC50: 8620 nM
67	69	Cc1cc2c(cc1Cc1ccc(C(=O)NCCOCCO)o1)C(C)(C)CCC2(C)C [drawing 1068]	–
–	–	COc1cc(OC)c(NC(=O)c2ccc(C(O)c3cc4c(cc3C)C(C)(C)CCC4(C)C)o2)c(OC)c1 (stereo not drawn) [AXC- 07047]	IC50: 1410 nM
30	44	Cc1cc2c(cc1Cc1ccc(C(=O)NCCc3ccc([N+](=O)[O-])cc3)o1)C(C)(C)CCC2(C)C [drawing 1057]	–
–	–	CCN(CC)CCOC(=O)c1ccc(NC(=O)c2ccc(Cc3cc4c(cc3C)C(C)(C)CCC4(C)C)o2)cc1 [Compound 135]	IC50: 1440 nM
–	–	Cc1cc(C)c2ccc(NC(=O)c3ccc(Cc4cc5c(cc4C)C(C)(C)CCC5(C)C)o3)nc2n1 [Compound 191]	IC50: 4240 nM
-18	-7	Cc1cc2c(cc1Cc1ccc(C(=O)N3CCN(c4ccc(Cl)cc4)C(C)C3)o1)C(C)(C)CCC2(C)C (stereo not drawn)	–
–	–	Cc1cc2c(cc1Cc1ccc(C(=O)Nc3ccc(CC(=O)O)cc3)o1)C(C)(C)CCC2(C)C [Compound 33]	IC50: 5300 nM
–	–	Cc1cc2c(cc1Cc1ccc(C(=O)N3CCN(c4ccccc4)CC3)o1)C(C)(C)CCC2(C)C [drawing 1121]	% Inhib. @ 1 uM hGnRH (1 uM): −6%; Repeats @ 1 uM hGnRH (repeat of % Inhib. at 1 uM): 6
–	–	COc1cccc(NC(=O)c2ccc(Cc3cc4c(cc3C)C(C)(C)CCC4(C)C)o2)c1 [Compound 337]	remaining activity at 10 µM (1 h): 6%
10	2	Cc1cc2c(cc1Cc1ccc(C(=O)NC(CO)CC3CCCCC3)o1)C(C)(C)CCC2(C)C (stereo not drawn) [drawing 1215]	–
-6	-7	Cc1cc2c(cc1Cc1ccc(C(=O)NCCc3c[nH]c4ccc(OCc5ccccc5)cc34)o1)C(C)(C)CCC2(C)C	–
-4	-7	Cc1cc2c(cc1Cc1ccc(C(=O)NCCN(C)C)o1)C(C)(C)CCC2(C)C	–
–	–	Cc1cc2c(cc1Cc1ccc(C(=O)NCCSCCCc3ccc(CN(C)C)o3)o1)C(C)(C)CCC2(C)C [Compound 65]	IC50: 710 nM
–	–	COc1ccc(NC(=O)c2ccc(Cc3cc4c(cc3C)C(C)(C)CCC4(C)C)o2)cn1 [Compound 325]	remaining activity at 10 µM (1 h): 3%
87	92	Cc1cc2c(cc1Cc1ccc(C(=O)NCc3ccc(-c4csnn4)cc3)o1)C(C)(C)CCC2(C)C [drawing 1013]	–
35	35	Cc1cc2c(cc1Cc1ccc(C(=O)NCC3CCN(c4nccc(NCC5CCCO5)n4)CC3)o1)C(C)(C)CCC2(C)C (stereo not drawn) [drawing 1037]	–
–	–	COc1ccc(OC)c(Cc2ccc(C(=O)Nc3c(OC)cc(OC)cc3OC)o2)c1 [Compound 186]	IC50: 7310 nM
–	–	Cc1cc2c(cc1Cc1ccc(C(=O)Nc3nccs3)o1)C(C)(C)CCC2(C)C [Compound 334]	remaining activity at 10 µM (1 h): 34%
–	–	Cc1cc2c(cc1Cc1ccc(C(=O)NCc3ccc(F)cc3)o1)C(C)(C)CCC2(C)C [Compound 426]	remaining activity at 1 µM (1 h): 30%
–	–	Cc1cc2c(cc1Cc1ccc(C(=O)NCCNc3nccc(NCC4CCCO4)n3)o1)C(C)(C)CCC2(C)C (stereo not drawn) [Compound 63]	IC50: 2500 nM
19	25	Cc1cc2c(cc1Cc1ccc(C(=O)N[C@H](C)[C@@H](O)c3ccccc3)o1)C(C)(C)CCC2(C)C	–

inhibition at 1 µM [1] [%]	inhibition at 1 µM [2] [%]	SMILES	also measured
-4	2	Cc1cc2c(cc1Cc1ccc(C(=O)NCc3cccc(NC(=O)N(Cc4ccccc4)c4ccccc4)c3)o1)C(C)(C)CCC2(C)C [drawing 1029]	–
–	–	Cc1cc2c(cc1Cc1ccc(C(=O)NCc3ccccc3Cl)o1)C(C)(C)CCC2(C)C [Compound 417]	remaining activity at 1 µM (1 h): 20%
100	101	Cc1cc2c(cc1Cc1ccc(C(=O)NCc3nc4ccccc4[nH]3)o1)C(C)(C)CCC2(C)C [drawing 1053]	–
–	–	Cc1cccc(CNC(=O)c2ccc(Cc3cc4c(cc3C)C(C)(C)CCC4(C)C)o2)c1 [Compound 434]	remaining activity at 1 µM (1 h): 6%
-11	-9	Cc1cc2c(cc1Cc1ccc(C(=O)N(C)[C@@H](C)[C@@H](O)c3ccccc3)o1)C(C)(C)CCC2(C)C	–
–	–	COc1cccc(CNC(=O)c2ccc(Cc3cc4c(cc3C)C(C)(C)CCC4(C)C)o2)c1 [Compound 439]	remaining activity at 1 µM (1 h): 23%
59	60	Cc1cc2c(cc1Cc1ccc(C(=O)NCCc3ccccc3)o1)C(C)(C)CCC2(C)C [drawing 1079]	–
77	84	Cc1cc2c(cc1Cc1ccc(C(=O)NCc3ccccc3Cl)o1)C(C)(C)CCC2(C)C [drawing 1103]	–
50	62	Cc1cc2c(cc1Cc1ccc(C(=O)NCCc3ccccn3)o1)C(C)(C)CCC2(C)C [drawing 985]	–
–	–	Cc1cc2c(cc1Cc1ccc(C(=O)NCc3ccccc3F)o1)C(C)(C)CCC2(C)C [Compound 408]	remaining activity at 1 µM (1 h): 16%
–	–	COc1ccccc1NC(=O)c1ccc(Cc2cc3c(cc2C)C(C)(C)CCC3(C)C)o1 [Compound 160]	IC50: 390 nM
–	–	Cc1cc2c(cc1Cc1ccc(C(=O)Nc3ccccc3C(=O)N3CCN(C)CC3)o1)C(C)(C)CCC2(C)C [Compound 348]	remaining activity at 10 µM (1 h): 49%
–	–	CCc1ccc(C)nc1NC(=O)c1ccc(Cc2cc3c(cc2C)C(C)(C)CCC3(C)C)o1 [Compound 375]	remaining activity at 10 µM (1 h): 16%
28	35	Cc1cc2c(cc1Cc1ccc(C(=O)NC(C)c3ccc(F)cc3)o1)C(C)(C)CCC2(C)C (stereo not drawn)	–
–	–	Cc1cc2c(cc1Cc1ccc(C(=O)NCc3cccc(-c4ccccc4)c3)o1)C(C)(C)CCC2(C)C [Compound 66]	IC50: 3500 nM
45	45	Cc1cc2c(cc1Cc1ccc(C(=O)NCCc3ccc(F)cc3)o1)C(C)(C)CCC2(C)C [drawing 1198]	–
84	86	Cc1ccccc1CNC(=O)c1ccc(Cc2cc3c(cc2C)C(C)(C)CCC3(C)C)o1 [drawing 1097]	–
–	–	Cc1cc2c(cc1Cc1ccc(C(=O)Nc3nc[nH]n3)o1)C(C)(C)CCC2(C)C [Compound 324]	remaining activity at 10 µM (1 h): 27%
11	15	Cc1cc2c(cc1Cc1ccc(C(=O)NC3Cc4ccccc4C3)o1)C(C)(C)CCC2(C)C	–
85	85	COC(=O)CCCCCNC(=O)c1ccc(Cc2cc3c(cc2C)C(C)(C)CCC3(C)C)o1 [drawing 1059]	–
12	14	Cc1cc2c(cc1Cc1ccc(C(=O)NC(C)C(O)c3ccccc3)o1)C(C)(C)CCC2(C)C (stereo not drawn)	–
63	69	Cc1cc2c(cc1Cc1ccc(C(=O)NCCN3CCOCC3)o1)C(C)(C)CCC2(C)C [drawing 987]	–
60	62	COc1cc(CNC(=O)c2ccc(Cc3cc4c(cc3C)C(C)(C)CCC4(C)C)o2)cc(OC)c1OC [drawing 995]	–
-10	-8	Cc1cc2c(cc1Cc1ccc(C(=O)NCCCNCc3ccc(Cl)cc3)o1)C(C)(C)CCC2(C)C	–
79	82	Cc1cc2c(cc1Cc1ccc(C(=O)NCc3ccco3)o1)C(C)(C)CCC2(C)C [drawing 1089]	–
–	–	COc1cc(OC)c(NC(=O)c2ccc(Cc3cc(C(C)=O)c(C)cc3C)o2)c(OC)c1 [Compound 230]	IC50: 580 nM
–	–	Cc1cc2c(cc1Cc1ccc(C(=O)NCC3CCN(C(=N)N)CC3)o1)C(C)(C)CCC2(C)C [Compound 35]	IC50: 1200 nM
